Test results reported in US4665076A, “Pharmacologically active piperidine derivatives and their use” (Rhone-Poulenc Sante, priority 1984, dated 1987).

Test system: aconitine-induced ventricular arrhythmias
Assay: aconitine test in rats (antiarrhythmic activity)
Format: in vivo, male rats
Protocol: The principle of the technique rests on the time required for inducing ventricular arrhythmias with aconitine slowly perfused in rats. An antiarrhythmic substance delays the appearance of the arrhythmia, and this delay is proportional to the activity of the substance.
Groups of 5 male rats are used. Individual anaesthetisation is carried out (10% urethane: 1 g/kg/ip) to permit catheterisation of the vein of the penis. The electrocardiogram is recorded. At time T=O, the substance studied is injected as an aqueous solution, in the proportion of 2.5 ml of solution per kg, in the course of 30 seconds. At time T=60 seconds, or 30 seconds after completing the injection, aconitine is perfused at the rate of 20 μg per minute until […] extrasystoles appear. The perfusion time of the aconitine is noted. The results are expressed as an ED50, i.e. the dose of the product under test in mg/kg which increases by 50% the perfusion time of aconitine relative to control animals.

SMILES	ED50 (dose which increases by 50% the perfusion time of aconitine relative to control animals)	ED50 (Rattus norvegicus, iv, read-out: ED50 (dose which increases by 50% the perfusion time of aconitine relative to control animals))
O=C(CCC1CCNCC1)c1ccc2ccccc2c1 [Example 1, 1-(2-Naphthyl)-3-(4-piperidyl)-1-propanone]	4 mg/kg i.v.	–
O=C(CCC1CCNCC1)c1cccc2ccccc12 [Example 2, 1-(1-Naphthyl)-3-(4-piperidyl)-1-propanone]	3.8 mg/kg i.v.	–
COc1cc2ccnc(C(=O)CCC3CCNCC3)c2cc1OC [Example 3, 1-(6,7-Dimethoxy-1-isoquinolyl)-3-(4-piperidyl)-1-propanone]	2.1 mg/kg i.v.	–
OC(CCC1CCNCC1)c1cccc2ccccc12 (stereo not drawn) [Example 5, 1-(1-Naphthyl)-3-(4-piperidyl)-1-propanol]	1.42 mg/kg i.v.	–
OC(CCC1CCNCC1)c1nccc2ccccc12 (stereo not drawn) [Example 6, 1-(1-Isoquinolyl)-3-(4-piperidyl)-1-propanol]	2.7 mg/kg i.v.	–
COc1cc2ccnc(C(O)CCC3CCNCC3)c2cc1OC (stereo not drawn) [Example 7, 1-(6,7-Dimethoxy-1-isoquinolyl)-3-(4-piperidyl)-1-propanol]	2.5 mg/kg i.v.	–
CC(C)(C)c1nc(C(O)CCC2CCNCC2)c2ccccc2n1 (stereo not drawn) [Example 8, 1[2-(1,1-Dimethylethyl)-4-quinazolinyl]-3-(4-piperidyl)-1-propanol]	1 mg/kg i.v.	–
NC(CCC1CCNCC1)c1ccc2ccccc2c1 (stereo not drawn) [Example 9, 1-(2-Naphthyl)-3-(4-piperidyl)-1-propanamine]	–	< 0.3 mg/kg
C=C[C@H]1C[N@@]2CC[C@H]1C[C@@H]2[C@@H](O)c1ccnc2ccc(OC)cc12 [Quinidine, reference compound]	7.5 mg/kg i.v.	–
